Data taken from US20080214568A1, “Pharmaceutical Combination Comprising an Antifungal Agent and an Active Substance Selected From Carveol, Eugenol, Thymol, Borneol, Carvacrol, and Alpha- and Beta-Ionones” (ADVANCED SCIENTIFIC DEVELOPMENTS, priority 2005, published 2008).
Read-outs that look alike come from different tables or passages of the source.

Assays:
Candida albicans = assay: Static tests: minimal inhibitory (MIC) and minimal fungicidal concentration (MFC) on Candida albicans strains; format: cell-based
Protocol: In Vitro Tests: Determination of Minimal Fungicidal Concentration (MFC) on Different Strains of Candida albicans
The experiment was carried out with several strains of Candida albicans having different susceptibilities isolated in the hospital environment from the mouth, vagina and digestive tract. […] An antifungal pharmaceutical composition was prepared by mixing fluconazole at different concentrations with carvacrol at a sub-inhibitory concentration of 0.3 g per liter of solution or excipient. This pharmaceutical composition according to the invention was named FLUC-P for potentiated fluconazole. In each case, antifungal activity was determined either with fluconazole alone, or with carvacrol alone, or with the composition of the invention.
Table 1 gives the results of static tests to determine the minimal fungicidal concentration (MFC) in μg/ml.
(§1) The experiment was carried out with several strains of Candida albicans having different susceptibilities isolated in the hospital environment. The antifungal agent used was voriconazole, an azole derivative and one of the most recent antifungals on the market. An antifungal pharmaceutical composition according to the invention was prepared by mixing voriconazole at different concentrations with carvacrol at a sub-inhibitory concentration of 0.3 g per liter of solution or excipient. This pharmaceutical composition according to the invention was named Vorico-P for potentiated voriconazole. In each case, antifungal activity was determined either with voriconazole alone, or with carvacrol alone, or with the composition of the invention.
Table 2 gives the results of static tests to determine the minimal inhibitory concentration (MIC) and the minimal fungicidal concentration (MFC) in μg/ml.
as §1, with “caspofungin, from the echinocandin family, which is” for “voriconazole, an azole derivative and”, “newest” for “most recent”, “caspofungin” for “voriconazole”, “Caspo-P” for “Vorico-P”, “caspofungin.” for “voriconazole.”
Table 3 gives the results of static tests to determine the minimal inhibitory concentration (MIC) and the minimal fungicidal concentration (MFC) in μg/ml.
The experiment was carried out with several strains of Candida albicans having different susceptibilities isolated in the hospital environment. The antifungal agent used was 5-fluorocytosine, from the pyrimidine group, which is one of the oldest antifungal agents. An antifungal pharmaceutical composition according to the invention was prepared by mixing 5-fluorocytosine at different concentrations with eugenol at a sub-inhibitory concentration of 0.5 g per liter of solution or excipient. This pharmaceutical composition according to the invention was named Fluoro-P for potentiated 5-fluorocytosine. In each case, antifungal activity was determined either with 5-fluorocytosine alone, or with eugenol alone, or with the composition of the invention.
Table 4 gives the results of static tests to determine the minimal inhibitory concentration (MIC) and the minimal fungicidal concentration (MFC) in μg/ml.

[1] = test system: Candida albicans strain with moderate resistance to fluconazole; format: in vivo, mice; conditions: fluconazole alone 4 mg/kg/day, carvacrol alone 30 mg/kg/day; for survival: mice, gavage from 24 h post-infection, seven days, composition fluconazole 2 mg/kg + carvacrol 30 mg/kg, FIG. 2; for Candida albicans loads in kidney, lung and bone marrow: organs of mice which died during the experiment
From the text: FIG. 2 presents the results of in vivo tests in a systemic candidiasis model in experimentally infected mice either untreated, or treated with fluconazole alone, treated with carvacrol alone, or treated with a pharmaceutical composition according to the invention comprising fluconazole and carvacrol.
Groups of 15 mice were experimentally infected by intravenous injection of 10,000,000 cells (colony-forming units) of a Candida albicans strain with moderate resistance to fluconazole.
The first group was composed of control mice which were infected and untreated.
The second group was composed of infected mice treated by gavage, 24 h post-infection, with fluconazole alone at a dose of 4 mg/kg of body weight/day.
The third group was composed of infected mice treated by gavage, 24 h post-infection, with carvacrol alone at a dose of 30 mg/kg of body weight/day.
The fourth group was composed of infected mice treated by gavage, 24 h post-infection, with fluconazole 2 mg/kg of body weight and with carvacrol 30 mg/kg of body weight.
The duration of treatment was seven days for surviving animals. The survival rate was measured over time. […] All the other mice died between the second and seventh day post-infection.

Aspergillus niger = assay: Static tests: MIC and MFC on Aspergillus niger strains; format: cell-based
Protocol: The experiment was carried out with several strains of Aspergillus niger which were not susceptible to fluconazole. The antifungal agent used was fluconazole, an azole derivative and one of the most widely used antifungals. […] Aspergillosis, caused by microorganisms from the family Aspergillus sp, represents the most common and most difficult-to-treat infection. An antifungal pharmaceutical composition according to the invention was prepared by mixing fluconazole at different concentrations with carvacrol at a sub-inhibitory concentration of 0.25 g per liter of solution or excipient. This pharmaceutical composition according to the invention was named Fluc-P for potentiated fluconazole. In each case, antifungal activity was determined either with fluconazole alone, or with carvacrol alone, or with the composition of the invention.
Table 5 gives the results of static tests to determine the minimal inhibitory concentration (MIC) and the minimal fungicidal concentration (MFC) in μg/ml.

SMILES: Nc1nc(=O)[nH]cc1F [5-fluorocytosine]
- MIC (Candida albicans; Candida albicans, Example 4, resistant strain, 5-fluorocytosine alone): 25 mg/L
- MIC (Candida albicans; Candida albicans, Example 4, susceptible strain, 5-fluorocytosine alone): 2.5 mg/L
- 5-fluorocytosine concentration producing fungicidal activity versus fungistatic concentration of 5-fluorocytosine alone (Candida albicans; resistant strains, with eugenol 0.5 mg/ml): five times lower

SMILES: C[C@@H](c1ncncc1F)[C@](O)(Cn1cncn1)c1ccc(F)cc1F [Voriconazole, voriconazole]
- MIC (Candida albicans; Candida albicans, Example 2, resistant strain, voriconazole alone): 10 mg/L
- MIC (Candida albicans; Candida albicans, Example 2, susceptible strain, voriconazole alone): < 0.05 mg/L
- voriconazole concentration producing fungicidal activity versus fungistatic concentration of voriconazole alone (Candida albicans; resistant strains, with carvacrol 0.3 mg/ml): at least ten times lower

SMILES: Cc1ccc(C(C)C)cc1O [Carvacrol, carvacrol]
- MFC (Candida albicans; Candida albicans): 1000 mg/L
- MFC (Candida albicans; Example 1, highly resistant strain, exponential growth phase, substance alone): 1000 mg/L
- MFC (Candida albicans; Example 1, moderately resistant strain, exponential growth phase, substance alone): 1000 mg/L
- MFC (Candida albicans; Example 2, resistant strain, carvacrol alone): 1000 mg/L
- MFC (Candida albicans; Example 2, susceptible strain, carvacrol alone): 1000 mg/L
- MFC (Candida albicans; Example 3, resistant strain, carvacrol alone): 1000 mg/L
- MFC (Candida albicans; Example 3, susceptible strain, carvacrol alone): 1000 mg/L
- survival [1]: died during the experiment
- Candida albicans loads in kidney, lung and bone marrow [1]: high loads
- MFC (Aspergillus niger; Aspergillus niger): 500 mg/L

SMILES: C=CCc1ccc(O)c(OC)c1 [Eugenol, eugenol]
- MFC (Candida albicans; Candida albicans, Example 4, resistant strain, eugenol alone, read-out: MFC): 2000 mg/L
- MFC (Candida albicans; Candida albicans, Example 4, susceptible strain, eugenol alone, read-out: MFC): 2000 mg/L

SMILES: OC(Cn1cncn1)(Cn1cncn1)c1ccc(F)cc1F [Fluconazole, fluconazole]
- MFC (Candida albicans; Candida albicans, Example 1, highly resistant strain, exponential growth phase, substance alone, read-out: MFC): > 300 mg/L
- MFC (Candida albicans; Candida albicans, Example 1, moderately resistant strain, exponential growth phase, substance alone, read-out: MFC): 150 mg/L
- MFC (Candida albicans; Candida albicans, Example 1, susceptible strain, exponential growth phase, substance alone, read-out: MFC): 0.5 mg/L
- survival [1]: died during the experiment
- Candida albicans loads in kidney, lung and bone marrow [1]: high loads
- MIC (Aspergillus niger; Example 5, 12 different strains of Aspergillus niger, fluconazole alone): > 1000 mg/L

SMILES: CC[C@H](C)C[C@H](C)CCCCCCCCC(=O)N[C@H]1C[C@@H](O)[C@@H](NCCN)NC(=O)[C@@H]2[C@@H](O)CCN2C(=O)[C@H]([C@H](O)CCN)NC(=O)[C@H]([C@H](O)[C@@H](O)c2ccc(O)cc2)NC(=O)[C@@H]2C[C@@H](O)CN2C(=O)[C@H]([C@@H](C)O)NC1=O [Caspofungin, caspofungin]
- MIC (Candida albicans; Candida albicans, Example 3, resistant strain, caspofungin alone): 3 mg/L
- MIC (Candida albicans; Candida albicans, Example 3, susceptible strain, caspofungin alone): < 0.05 mg/L
- caspofungin concentration producing fungicidal activity versus fungistatic concentration of caspofungin alone (Candida albicans; with carvacrol 0.3 mg/ml): at least six times lower
